Converted amounts (≈) assume the structure as drawn. Like-named read-outs stand apart in the source and are kept apart here.
Key:
S. aureus ATCC 29213 = assay: Broth microdilution MIC with arithmetic drug dilutions; type: cell-based, Staphylococcus aureus; conditions: for MIC: Staphylococcus aureus, ATCC29213, mean
Experimental: (§1) Pooled sera from humans, mice and rats were obtained from Equitech-Bio (Kerrville, Tex.); pooled serum from beagle dogs was from Bioreclamation (Liverpool, N.Y.). ULTRA was prepared using Centricon Plus-50 ultrafilters (Millipore, Billerica, Mass.), whose molecular weight cutoff (50 kDa) excludes albumin. ORI stock solutions were prepared following CLSI M100-818 (Clinical and Laboratory Standards Institute. 2008. CLSI document M100-S18). Staphylococcus aureus ATCC 29213 was used as the test isolate at a final inoculum of ˜5×10^5 CFU/mL in both MIC and AUIC studies.
(§2) Arithmetic MICs: Broth microdilution MIC assays with Staphylococcus aureus ATCC 29213 were based on CLSI guidelines (Clinical and Laboratory Standards Institute, 2009, CLSI document M7-A7). Growth media were 95% serum:5% CAMHB and 95% serum ultrafiltrate:5% CAMHB. Arithmetic dilutions of oritavancin and comparators were used to increase precision of minimum inhibitory concentration (MIC) values relative to doubling dilutions. Percent binding in serum was calculated as follows: % Bound=(1−[mean MICultrafiltrate/mean MICserum]×100%

human serum protein = assay: Serum protein binding estimated from MIC shift, serum vs serum ultrafiltrate (human); type: in vitro ADME; conditions: from mean MICs, broth microdilution, this study
Excerpt: (§3) Avid binding of oritavancin (ORI) to filtration and dialysis membranes renders most protein binding methodologies unsuitable. To control for any impact of serum components on bacterial growth and antibiotic activity, MIC shifts (from arithmetic drug dilutions) and area under the inhibitory curve (AUIC) shifts (from time-kill assays) were quantified in the presence of serum (SER) compared to SER ultrafiltrate (ULTRA; free of albumin) to estimate ORI binding to serum. In this manner, the extent of reduction in oritavancin activity in serum was related to its degree of serum protein binding. The method was benchmarked using daptomycin and ceftriaxone (Lee et al., Antimicrob Agents Chemother. 35:2505-2508 (1991); Schmidt et al., Antimicrob Agents Chemother. 52:3994-4000 (2008); Yuk et al., Clin Pharmacokinet. 17:223-235 (1989); McKay et al., Evaluation of oritavancin activity in vitro in the presence of human and mouse serum, abstr P1854. Abstr. 19th European Congress of Clinical Microbiology and Infectious Diseases. European Society of Clinical Microbiology and Infectious Diseases, Basel, Switzerland, May 16, 2009).
as §1
as §2, with “Arithmetic dilutions of oritavancin and comparators were used to increase precision of minimum inhibitory concentration (MIC) values relative to doubling dilutions.” left out

[1] = Serum protein binding estimated from MIC shift, serum vs serum ultrafiltrate (mouse); type: in vitro ADME; conditions: pooled mouse serum compared with serum ultrafiltrate; mouse serum; from mean MICs, broth microdilution; this study; read-out: % Bound (protein binding estimate) (converted)
Excerpt: as §3, §1
as §2, with “Arithmetic dilutions of oritavancin and comparators were used to increase precision of minimum inhibitory concentration (MIC) values relative to doubling dilutions.” left out

rat serum protein = assay: Serum protein binding estimated from MIC shift, serum vs serum ultrafiltrate (rat); type: in vitro ADME; conditions: from mean MICs, broth microdilution, this study
Excerpt: as §3, §1
as §2, with “Arithmetic dilutions of oritavancin and comparators were used to increase precision of minimum inhibitory concentration (MIC) values relative to doubling dilutions.” left out

beagle dog serum protein = assay: Serum protein binding estimated from MIC shift, serum vs serum ultrafiltrate (dog); type: in vitro ADME; conditions: from mean MICs, broth microdilution, this study
Excerpt: as §3, §1
as §2, with “Arithmetic dilutions of oritavancin and comparators were used to increase precision of minimum inhibitory concentration (MIC) values relative to doubling dilutions.” left out

[2] = Serum protein binding from MIC shift, summary across species; type: in vitro ADME, human, mouse, rat, dog; conditions: pooled serum compared with serum ultrafiltrate; serum from mouse, rat, and beagle dog; MIC shift; read-out: Serum protein binding estimates, range
Excerpt: as §3, §1
as §2, with “Arithmetic dilutions of oritavancin and comparators were used to increase precision of minimum inhibitory concentration (MIC) values relative to doubling dilutions.” left out

human serum = conditions: cited from earlier work
mouse serum protein = assay: Serum protein binding estimated from MIC shift, serum vs serum ultrafiltrate (mouse); type: in vitro ADME; conditions: mouse, serum
Excerpt: as §3, §1
as §2, with “Arithmetic dilutions of oritavancin and comparators were used to increase precision of minimum inhibitory concentration (MIC) values relative to doubling dilutions.” left out

plasma protein = conditions: across tested species; Shaw et al. 2008; cited from earlier work
[3] = 95% dog serum + 5% CAMHB, read-out: MIC, Serum
[4] = 95% dog serum ultrafiltrate + 5% CAMHB, read-out: MIC, Ultrafiltrate
[5] = 95% human serum + 5% CAMHB, read-out: MIC, Serum
[6] = 95% human serum ultrafiltrate + 5% CAMHB, read-out: MIC, Ultrafiltrate
[7] = 95% mouse serum + 5% CAMHB, read-out: MIC, Serum
[8] = 95% mouse serum ultrafiltrate + 5% CAMHB, read-out: MIC, Ultrafiltrate
[9] = 95% rat serum + 5% CAMHB, read-out: MIC, Serum
[10] = 95% rat serum ultrafiltrate + 5% CAMHB, read-out: MIC, Ultrafiltrate
[11] = cation-adjusted Mueller-Hinton broth, CLSI conditions, Dog, read-out: MIC, CAMHB
[12] = cation-adjusted Mueller-Hinton broth, CLSI conditions, Human, read-out: MIC, CAMHB
[13] = cation-adjusted Mueller-Hinton broth, CLSI conditions, Mouse, read-out: MIC, CAMHB
[14] = cation-adjusted Mueller-Hinton broth, CLSI conditions, Rat, read-out: MIC, CAMHB
[15] = mean MIC in 95% dog serum / mean MIC in 95% dog serum ultrafiltrate
[16] = mean MIC in 95% human serum / mean MIC in 95% human serum ultrafiltrate
[17] = mean MIC in 95% mouse serum / mean MIC in 95% mouse serum ultrafiltrate
[18] = mean MIC in 95% rat serum / mean MIC in 95% rat serum ultrafiltrate

| Structure (SMILES) | MIC (S. aureus ATCC 29213; [3]) [µg/mL] | MIC (S. aureus ATCC 29213; [4]) [µg/mL] | MIC (S. aureus ATCC 29213; [5]) [µg/mL] | MIC (S. aureus ATCC 29213; [6]) [µg/mL] | MIC (S. aureus ATCC 29213; [7]) [µg/mL] | MIC (S. aureus ATCC 29213; [8]) [µg/mL] | MIC (S. aureus ATCC 29213; [9]) [µg/mL] | MIC (S. aureus ATCC 29213; [10]) [µg/mL] | MIC (S. aureus ATCC 29213; [11]) [µg/mL] | MIC (S. aureus ATCC 29213; [12]) [µg/mL] | MIC (S. aureus ATCC 29213; [13]) [µg/mL] | MIC (S. aureus ATCC 29213; [14]) [µg/mL] | Mean Fold MIC Increase (S. aureus ATCC 29213; [15]) [fold] | Mean Fold MIC Increase (S. aureus ATCC 29213; [16]) [fold] | Mean Fold MIC Increase (S. aureus ATCC 29213; [17]) [fold] | Mean Fold MIC Increase (S. aureus ATCC 29213; [18]) [fold] | % Bound (protein binding estimate) (human serum protein) [%] | % Bound (protein binding estimate) (rat serum protein) [%] | % Bound (protein binding estimate) (beagle dog serum protein) [%] | further results |
| --- | --- | --- | --- | --- | --- | --- | --- | --- | --- | --- | --- | --- | --- | --- | --- | --- | --- | --- | --- | --- |
| CO/N=C(\C(=O)N[C@@H]1C(=O)N2C(C(=O)O)=C(CSc3nc(=O)c(=O)[nH]n3C)CS[C@H]12)c1csc(N)n1 [Ceftriaxone] | 1.38 | 1.09 | 38.8 | 2.88 | 6 | 3.75 | 5.88 | 3.88 | 5.25 (≈ 9.47 µM) | 4.88 (≈ 8.8 µM) | 5 (≈ 9.02 µM) | 3.5 (≈ 6.31 µM) | 1.3 | 13.5 | 1.6 | 1.5 | 92.6 | 34.0 | 20.9 | fraction unbound [1]: 0.625; fraction unbound [2]: 0.625 to 0.791; Binding estimate from in vitro microdialysis (human serum): 76.8% |
| CCCCCCCCCC(=O)N[C@@H](Cc1c[nH]c2ccccc12)C(=O)N[C@H](CC(N)=O)C(=O)N[C@@H](CC(=O)O)C(=O)N[C@@H]1C(=O)NCC(=O)N[C@@H](CCCN)C(=O)N[C@@H](CC(=O)O)C(=O)N[C@H](C)C(=O)N[C@@H](CC(=O)O)C(=O)NCC(=O)N[C@H](CO)C(=O)N[C@@H]([C@H](C)CC(=O)O)C(=O)N[C@@H](CC(=O)c2ccccc2N)C(=O)O[C@@H]1C [Daptomycin] | 2.5 | 0.638 | 3 | 0.513 | 12.5 | 3 | 1.56 | 0.538 | 1 (≈ 0.617 µM) | 0.975 (≈ 0.602 µM) | 0.975 (≈ 0.602 µM) | 1.25 (≈ 0.771 µM) | 3.9 | 5.8 | 4.2 | 2.9 | 82.9 | 65.6 | 74.5 | % Bound (protein binding estimate) (mouse serum protein): 76.0% |
| CCCCCCCCCCNCCN[C@@]1(C)C[C@H](O[C@H]2[C@H](Oc3c4cc5cc3Oc3ccc(cc3Cl)[C@@H](O)[C@@H](NC(=O)[C@@H](CC(C)C)NC)C(=O)N[C@@H](CC(N)=O)C(=O)N[C@H]5C(=O)N[C@H]3C(=O)N[C@H](C(=O)N[C@H](C(=O)O)c5cc(O)c(CNCP(=O)(O)O)c(O)c5-c5cc3ccc5O)[C@H](O)c3ccc(c(Cl)c3)O4)O[C@H](CO)[C@@H](O)[C@@H]2O)O[C@@H](C)[C@H]1O [telavancin] | – | – | – | – | – | – | – | – | – | – | – | – | – | – | – | – | – | – | – | Plasma protein binding (plasma protein): approximately 90% |
